Like-named read-outs stand apart in the source and are kept apart here.
Columns and labels:
[1] = target: T1, MMP-2 (Homo sapiens, UniProt P08253); assay: MMP-2 inhibition assay (fluorogenic peptide substrate); format: biochemical; settings: for IC50: n.d: not detected
T1 construct: purchased Sino Biological 10082-HNAH
T1 sequence (P08253 110-660): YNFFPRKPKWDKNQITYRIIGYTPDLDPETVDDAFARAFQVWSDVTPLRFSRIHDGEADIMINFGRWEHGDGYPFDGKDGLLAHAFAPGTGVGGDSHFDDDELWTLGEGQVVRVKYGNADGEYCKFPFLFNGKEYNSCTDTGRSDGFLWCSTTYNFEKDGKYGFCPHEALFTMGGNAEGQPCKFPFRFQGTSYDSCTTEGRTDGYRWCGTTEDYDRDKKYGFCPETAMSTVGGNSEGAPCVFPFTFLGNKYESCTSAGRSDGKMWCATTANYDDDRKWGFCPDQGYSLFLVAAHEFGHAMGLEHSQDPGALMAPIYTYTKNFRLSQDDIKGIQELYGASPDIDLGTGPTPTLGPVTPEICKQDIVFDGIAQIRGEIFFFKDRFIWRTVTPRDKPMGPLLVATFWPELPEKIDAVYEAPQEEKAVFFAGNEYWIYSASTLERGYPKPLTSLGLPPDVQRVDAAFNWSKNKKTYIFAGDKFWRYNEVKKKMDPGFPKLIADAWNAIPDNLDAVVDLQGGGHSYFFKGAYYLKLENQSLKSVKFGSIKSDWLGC
How it was run: (§1)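 Human proMMP-2 and proMMP-9 were activated with 1 mM APMA for 2 h at 37 °C, then used at 6.5 nM (MMP-2) or 10 nM (MMP-9) final in Tris/NaCl/CaCl2/Brij 35 buffer, pH 7.5. After 30 min preincubation with compound at RT, 25 μM FRET peptide substrate was added and fluorescence (ex 280/em 360 nm) followed for 30 min. IC50 came from logistic fits of Vmax.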

[2] = target: T2, MMP-9 (Homo sapiens, UniProt P14780); assay: MMP-9 inhibition assay (fluorogenic peptide substrate); format: biochemical; design: remaining enzyme activity (% of control): scale not given here
T2 construct: purchased Sino Biological 10327-HNAH
How it was run: as §1

[3] = mean ± SE, Fig. 5d unit inferred, µM, read-out: IC50
[4] = mean ± SE; n.d: not detected; Fig. 5e prints no unit, µM; read-out: IC50
[5] = Figure 5d, fragment combination joined by linker, read-out: MMP2 IC50
[6] = Figure 5d; fragment combination joined by linker; n.d: not detected; read-out: MMP9 IC50

T2 sequence (P14780 107-707 limits assumed): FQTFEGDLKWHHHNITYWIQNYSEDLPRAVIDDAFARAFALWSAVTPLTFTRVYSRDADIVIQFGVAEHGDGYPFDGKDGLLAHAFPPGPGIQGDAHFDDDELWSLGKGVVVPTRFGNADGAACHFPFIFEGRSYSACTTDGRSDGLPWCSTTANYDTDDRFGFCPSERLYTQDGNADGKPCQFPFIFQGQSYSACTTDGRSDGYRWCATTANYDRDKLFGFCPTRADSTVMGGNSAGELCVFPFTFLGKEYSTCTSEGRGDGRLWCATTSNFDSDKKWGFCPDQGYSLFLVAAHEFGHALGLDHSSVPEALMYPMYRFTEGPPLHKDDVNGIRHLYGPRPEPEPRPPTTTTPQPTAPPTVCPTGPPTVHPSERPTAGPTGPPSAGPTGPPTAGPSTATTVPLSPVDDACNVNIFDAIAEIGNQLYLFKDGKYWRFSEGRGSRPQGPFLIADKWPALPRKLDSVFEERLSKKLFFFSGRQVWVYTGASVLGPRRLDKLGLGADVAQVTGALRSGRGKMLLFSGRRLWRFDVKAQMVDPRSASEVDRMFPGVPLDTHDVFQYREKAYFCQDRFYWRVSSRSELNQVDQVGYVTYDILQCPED

Cn1c(O)nc2cc(C(=O)NCCCCC=CC(=O)CC(=O)NCCNC(=O)Cn3cnc4c(oc5ccccc54)c3=O)cnc21 [182+826 Linker 12]
remaining activity (%) ([1]; MMP-2, concentration 0.13 µM): 97.62
remaining activity (%) ([1]; MMP-2, concentration 0.50 µM): 96.92
remaining activity (%) ([1]; MMP-2, concentration 2.01 µM): 91.66
remaining activity (%) ([1]; MMP-2, concentration 8.03 µM): 85.01
remaining activity (%) ([1]; MMP-2, concentration 128.50 µM): 28.27
remaining activity (%) ([1]; MMP-2, concentration 514.00 µM): 12.65
IC50 [1, 3]: 62.3 ± 14 µM
remaining enzyme activity (% of control) ([2]; MMP-9, concentration 0.12 µM): 93.35
remaining enzyme activity (% of control) ([2]; MMP-9, concentration 0.49 µM): 105.08
remaining enzyme activity (% of control) ([2]; MMP-9, concentration 1.95 µM): 88.98
remaining enzyme activity (% of control) ([2]; MMP-9, concentration 7.81 µM): 94.00
remaining enzyme activity (% of control) ([2]; MMP-9, concentration 31.25 µM): 85.67
remaining enzyme activity (% of control) ([2]; MMP-9, concentration 125.00 µM): 51.95
remaining enzyme activity (% of control) ([2]; MMP-9, concentration 500.00 µM): 12.28
IC50 [2, 4]: 131 ± 24.2 µM

O=C(Cn1cnc2c(oc3ccccc32)c1=O)NCCOCCOCCNC(=O)c1cncc(O)c1 [182+828 Linker 10]
remaining activity (%) ([1]; MMP-2, concentration 0.0117 µM): 98.76
remaining activity (%) ([1]; MMP-2, concentration 0.06 µM): 98.75
remaining activity (%) ([1]; MMP-2, concentration 0.29 µM): 92.92
remaining activity (%) ([1]; MMP-2, concentration 1.46 µM): 80.34
remaining activity (%) ([1]; MMP-2, concentration 7.32 µM): 73.36
remaining activity (%) ([1]; MMP-2, concentration 36.60 µM): 63.34
remaining activity (%) ([1]; MMP-2, concentration 183.00 µM): 14.49
remaining activity (%) ([1]; MMP-2, concentration 915.00 µM): 0.00
IC50 [1, 3]: 43 ± 19.3 µM
remaining enzyme activity (% of control) ([2]; MMP-9, concentration 0.06 µM): 97.14
remaining enzyme activity (% of control) ([2]; MMP-9, concentration 0.29 µM): 97.22
remaining enzyme activity (% of control) ([2]; MMP-9, concentration 1.46 µM): 90.75
remaining enzyme activity (% of control) ([2]; MMP-9, concentration 7.32 µM): 93.96
remaining enzyme activity (% of control) ([2]; MMP-9, concentration 36.60 µM): 74.71
remaining enzyme activity (% of control) ([2]; MMP-9, concentration 183.00 µM): 29.12
remaining enzyme activity (% of control) ([2]; MMP-9, concentration 915.00 µM): 0.00
IC50 [2, 4]: 99.6 ± 31.7 µM

Cc1cc(=O)[nH]c(-n2nc(C)c(CCC(=O)NCCOCCOCCNC(=O)c3cncc(O)c3)c2C)n1 [693+828 Linker 10]
remaining activity (%) ([1]; MMP-2, concentration 0.0156 µM): 88.17
remaining activity (%) ([1]; MMP-2, concentration 0.08 µM): 88.67
remaining activity (%) ([1]; MMP-2, concentration 0.39 µM): 96.33
remaining activity (%) ([1]; MMP-2, concentration 1.95 µM): 93.57
remaining activity (%) ([1]; MMP-2, concentration 9.75 µM): 94.74
remaining activity (%) ([1]; MMP-2, concentration 48.76 µM): 85.76
remaining activity (%) ([1]; MMP-2, concentration 243.80 µM): 33.24
remaining activity (%) ([1]; MMP-2, concentration 1219.00 µM): 9.64
IC50 [1, 3]: 186 ± 15.7 µM
remaining enzyme activity (% of control) ([2]; MMP-9; concentration 0.08 µM): 97.89
remaining enzyme activity (% of control) ([2]; MMP-9; concentration 0.39 µM): 99.26
remaining enzyme activity (% of control) ([2]; MMP-9; concentration 1.95 µM): 97.73
remaining enzyme activity (% of control) ([2]; MMP-9; concentration 9.75 µM): 98.89
remaining enzyme activity (% of control) ([2]; MMP-9; concentration 48.76 µM): 84.90
remaining enzyme activity (% of control) ([2]; MMP-9; concentration 243.80 µM): 42.77
remaining enzyme activity (% of control) ([2]; MMP-9; concentration 1219.00 µM): 10.96
IC50 [2, 4]: 201 ± 21.3 µM

O=C(/C=C/CCCCNC(=O)c1cncc(O)c1)CC(=O)NCCNC(=O)Cn1cnc2c(oc3ccccc32)c1=O [182_828 12]
IC50 [1, 5]: 50.3 µM
IC50 [2, 6]: 45.9 µM

O=C(Cn1cnc2c(oc3ccccc32)c1=O)NCCNC(=O)c1cncc(O)c1 [182+828 Linker 1]
remaining activity (%) ([1]; MMP-2, concentration 0.00933 µM): 100.18
remaining activity (%) ([1]; MMP-2, concentration 0.0466 µM): 86.28
remaining activity (%) ([1]; MMP-2, concentration 0.23 µM): 84.03
remaining activity (%) ([1]; MMP-2, concentration 5.83 µM): 81.34
remaining activity (%) ([1]; MMP-2, concentration 29.14 µM): 67.66
remaining activity (%) ([1]; MMP-2, concentration 145.72 µM): 34.11
remaining activity (%) ([1]; MMP-2, concentration 728.60 µM): 8.96
IC50 [1, 3]: 77.1 ± 10 µM
remaining enzyme activity (% of control) ([2]; MMP-9, concentration 0.08 µM): 88.36
remaining enzyme activity (% of control) ([2]; MMP-9, concentration 0.42 µM): 92.30
remaining enzyme activity (% of control) ([2]; MMP-9, concentration 2.10 µM): 86.01
remaining enzyme activity (% of control) ([2]; MMP-9, concentration 10.52 µM): 90.65
remaining enzyme activity (% of control) ([2]; MMP-9, concentration 52.60 µM): 56.79
remaining enzyme activity (% of control) ([2]; MMP-9, concentration 263.00 µM): 22.31
remaining enzyme activity (% of control) ([2]; MMP-9, concentration 1315.00 µM): 0.00
IC50 [2, 4]: 92.1 ± 28.2 µM

Cc1cc(=O)[nH]c(-n2nc(C)c(CCC(=O)NCCNC(=O)CC(=O)/C=C/CCCCNC(=O)CCC(=O)NCc3c[nH]nn3)c2C)n1 [693_787 12]
IC50 [1, 5]: 68.4 µM
IC50 [2, 6]: 45.6 µM

Cn1c(O)nc2cc(C(=O)NCCOCCOCCNC(=O)CNC(=O)NC34CC5CC(CC(C5)C3)C4)cnc21 [66+826 Linker 10]
remaining activity (%) ([1]; MMP-2, concentration 0.12 µM): 101.73
remaining activity (%) ([1]; MMP-2, concentration 0.49 µM): 104.42
remaining activity (%) ([1]; MMP-2, concentration 1.95 µM): 99.57
remaining activity (%) ([1]; MMP-2, concentration 7.81 µM): 96.59
remaining activity (%) ([1]; MMP-2, concentration 31.25 µM): 91.55
remaining activity (%) ([1]; MMP-2, concentration 125.00 µM): 88.04
remaining activity (%) ([1]; MMP-2, concentration 500.00 µM): 85.39
remaining enzyme activity (% of control) ([2]; MMP-9; concentration 0.12 µM): 99.87
remaining enzyme activity (% of control) ([2]; MMP-9; concentration 0.49 µM): 98.00
remaining enzyme activity (% of control) ([2]; MMP-9; concentration 1.95 µM): 97.71
remaining enzyme activity (% of control) ([2]; MMP-9; concentration 7.81 µM): 90.00
remaining enzyme activity (% of control) ([2]; MMP-9; concentration 31.25 µM): 87.32
remaining enzyme activity (% of control) ([2]; MMP-9; concentration 125.00 µM): 80.00
remaining enzyme activity (% of control) ([2]; MMP-9; concentration 500.00 µM): 70.00

Cc1cc(=O)[nH]c(-n2nc(C)c(CCC(=O)NCCNC(=O)CC(=O)C=CCCCCNC(=O)c3cnc4c(c3)nc(O)n4C)c2C)n1 [693+826 Linker 12]
remaining activity (%) ([1]; MMP-2, concentration 0.12 µM): 103.13
remaining activity (%) ([1]; MMP-2, concentration 0.49 µM): 90.37
remaining activity (%) ([1]; MMP-2, concentration 1.95 µM): 90.36
remaining activity (%) ([1]; MMP-2, concentration 7.81 µM): 93.51
remaining activity (%) ([1]; MMP-2, concentration 31.25 µM): 77.90
remaining activity (%) ([1]; MMP-2, concentration 125.00 µM): 65.75
remaining activity (%) ([1]; MMP-2, concentration 500.00 µM): 29.31
IC50 [1, 3]: 210 ± 35.3 µM
remaining enzyme activity (% of control) ([2]; MMP-9; concentration 0.12 µM): 100.00
remaining enzyme activity (% of control) ([2]; MMP-9; concentration 0.49 µM): 80.27
remaining enzyme activity (% of control) ([2]; MMP-9; concentration 1.95 µM): 83.12
remaining enzyme activity (% of control) ([2]; MMP-9; concentration 7.81 µM): 88.09
remaining enzyme activity (% of control) ([2]; MMP-9; concentration 31.25 µM): 65.00
remaining enzyme activity (% of control) ([2]; MMP-9; concentration 125.00 µM): 27.22
remaining enzyme activity (% of control) ([2]; MMP-9; concentration 500.00 µM): 12.87
IC50 [2, 4]: 58.9 ± 10.5 µM
